The experiment addresses T1, GABABR1a/GABABR2 heterodimer (Homo sapiens, UniProt O75899+Q9UBS5).
T1 construct: expressed in transfected cells; membranes prepared from it)
As to the kind of experiment: [35S]-GTPγS binding assay, potency of PAM. The experiment is classed as biochemical. Particulars: potency of the positive allosteric modulator; log EC50 for GABA plotted against log concentration of modulator. An excerpt: GABABR1a and GABABR2 were cloned from human brain cDNA and subcloned into pCI-Neo(Promega) and pALTER-1 (Promega), respectively. A GABABR1a-Gαqi5 fusion protein expression vector was constructed using the pCI-Neo-GABABR1a cDNA plasmid and pLEC1-Gαqi5 (Molecular Devices, CA). In order to make the Gαqi5 pertussis toxin insensitive, Cys356 was mutated to Gly using standard PCR methodology with the primers 5′-[…]-3′ (forward) and 5′-GCGGCCG […]-3′ (reverse). The Gαqi5mut cDNA was ligated into the BamHI and NotI sites of pcDNA3.0 (Invitrogen). The GABAB R1a coding sequence was amplified by PCR from pCI-Neo-GABABR1a using the primers, 5′-[…]-3′ (forward) and 5′-[…]-3′ (reverse) and subcloned into the BamHI site of pcDNA3.0-Gαqi5mut. […]
[^35S]-GTPγS binding assays were performed at 30° C. for 45 min in membrane buffer (100 mM NaCl, […], 1 mM EDTA, 5 mM HEPES, pH 7.4) containing 0.025 μg/μl of membrane protein (prepared from the cell lines described above) with 0.01% bovine serum albumin (fatty acid free), 10 μM GDP, 100 μM DTT and 0.53 nM [^35S]-GTPγS (Amersham Pharmacia Biotech) in a final volume of 200 μl. Nonspecific binding was determined in the presence of 20 μM GTPγS. […]
(GTPγS is a poorly hydrolysed GTP analogue; its binding reports G protein activation.)

T1 sequence (Q9UBS5 15-961 limits assumed): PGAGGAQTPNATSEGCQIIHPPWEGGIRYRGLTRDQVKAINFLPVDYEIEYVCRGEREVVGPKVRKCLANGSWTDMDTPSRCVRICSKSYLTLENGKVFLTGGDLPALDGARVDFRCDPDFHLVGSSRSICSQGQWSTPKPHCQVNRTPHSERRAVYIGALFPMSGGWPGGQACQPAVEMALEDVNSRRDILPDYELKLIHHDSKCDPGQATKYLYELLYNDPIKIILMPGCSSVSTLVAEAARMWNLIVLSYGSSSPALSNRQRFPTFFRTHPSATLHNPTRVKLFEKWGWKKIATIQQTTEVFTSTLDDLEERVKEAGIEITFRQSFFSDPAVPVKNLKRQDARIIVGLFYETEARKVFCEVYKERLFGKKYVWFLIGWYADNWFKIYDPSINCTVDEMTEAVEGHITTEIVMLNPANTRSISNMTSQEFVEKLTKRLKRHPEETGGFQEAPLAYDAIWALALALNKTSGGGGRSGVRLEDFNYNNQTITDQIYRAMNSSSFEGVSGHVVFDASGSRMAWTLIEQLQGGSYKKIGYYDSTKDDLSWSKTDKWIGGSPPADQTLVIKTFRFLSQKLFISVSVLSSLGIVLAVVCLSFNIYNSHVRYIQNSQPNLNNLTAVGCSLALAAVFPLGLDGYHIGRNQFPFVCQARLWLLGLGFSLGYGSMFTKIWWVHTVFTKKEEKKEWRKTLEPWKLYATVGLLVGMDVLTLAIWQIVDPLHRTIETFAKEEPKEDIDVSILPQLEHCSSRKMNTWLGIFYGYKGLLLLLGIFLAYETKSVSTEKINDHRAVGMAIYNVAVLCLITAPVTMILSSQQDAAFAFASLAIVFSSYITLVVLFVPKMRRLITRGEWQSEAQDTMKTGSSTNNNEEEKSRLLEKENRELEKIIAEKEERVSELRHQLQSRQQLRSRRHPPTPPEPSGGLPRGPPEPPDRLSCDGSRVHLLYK
T1 sequence (O75899 42-941): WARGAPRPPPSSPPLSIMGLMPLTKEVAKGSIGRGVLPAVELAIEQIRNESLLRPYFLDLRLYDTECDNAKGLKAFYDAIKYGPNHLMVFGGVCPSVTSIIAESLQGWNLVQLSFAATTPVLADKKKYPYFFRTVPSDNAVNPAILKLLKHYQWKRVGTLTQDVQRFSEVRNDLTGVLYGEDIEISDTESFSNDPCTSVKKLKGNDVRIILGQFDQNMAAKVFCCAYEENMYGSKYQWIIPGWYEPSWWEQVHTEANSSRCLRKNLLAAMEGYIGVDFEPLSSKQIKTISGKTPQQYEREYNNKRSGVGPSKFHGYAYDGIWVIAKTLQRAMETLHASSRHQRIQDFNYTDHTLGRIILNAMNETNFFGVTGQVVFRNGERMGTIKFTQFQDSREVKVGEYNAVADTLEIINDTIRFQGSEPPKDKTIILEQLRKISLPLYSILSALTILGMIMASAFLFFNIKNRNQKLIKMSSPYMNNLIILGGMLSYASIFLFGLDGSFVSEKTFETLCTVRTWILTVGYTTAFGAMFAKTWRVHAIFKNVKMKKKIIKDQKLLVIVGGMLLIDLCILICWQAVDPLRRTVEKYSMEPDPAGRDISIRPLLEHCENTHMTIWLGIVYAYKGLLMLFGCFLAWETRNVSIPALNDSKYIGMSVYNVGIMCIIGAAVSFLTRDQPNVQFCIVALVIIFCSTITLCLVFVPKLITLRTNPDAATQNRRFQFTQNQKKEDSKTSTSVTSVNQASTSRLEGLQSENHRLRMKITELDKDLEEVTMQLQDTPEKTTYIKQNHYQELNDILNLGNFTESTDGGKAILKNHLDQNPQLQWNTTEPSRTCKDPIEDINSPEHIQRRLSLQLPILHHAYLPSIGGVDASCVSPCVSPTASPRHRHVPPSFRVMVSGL

One may read the EC50 as the concentration needed to bring the measured effect to its halfway point. For the compound `CCOC(=O)c1nc(C(C)C)sc1NC(=O)C(CC)c1ccccc1` (centres unmarked) [Example 16, Ethyl 2-isopropyl-5-[(2-phenylbutanoyl)amino]-1,3-thiazole-4-carboxylate], a half-maximal response (EC50) required 1.96 µM.

For the compound `CCOC(=O)c1nc(C(C)C)oc1NC(=O)c1ccc(C(C)(C)C)cc1` [Example 21, Ethyl 5-[(4-tert-butylbenzoyl)amino]-2-isopropyl-1,3-oxazole-4-carboxylate], the midpoint of the response, the EC50, lay at 7.23 µM.

These data come from US20080312291A1, “Heterocyclic Gaba-b Modulators” (priority 2005, published 2008).
